This is an account of results in patent publication US7592421B1, “HLA class II peptide mimics” (Health Research, Inc., priority 2003, dated 2009).

Data set [1] has as its system mAb HT214.F2.H6.4F4 binding to HLA class II antigens on LG2 cells. As to the kind of experiment: Inhibition of binding of mAb HT214.F2.H6.4F4 to HLA class II bearing LG2 cells. Conditions: FIG. 1A; negative control peptide 673.74. Details: species or system human. How it is done:
(§1) Peptide mimics of HLA class II antigen can be isolated by panning phage display peptide libraries with anti-HLA class II antigen mAbs. Anti-HLA class II antigen mAbs can be used to isolate phage that display antibody reactive peptides. After phage panning, the binding ability of isolated phage colonies to anti-HLA class II antigen mAbs is tested with immunoscreening and further confirmed by enzyme-linked immunosorbent assay (ELISA). Anti-HLA class II antigen antibody reactive phage clone and the same phage without displaying peptides, can be utilized as a positive and a negative controls respectively in the immunoscreening and ELISA. In the positive phage clones, the DNA inserts that encode the antibody reactive peptides can be sequenced. Peptides can be synthesized based on the sequences of the DNA inserts. The synthesized peptides are tested in ELISA to determine their binding reactivity with corresponding anti-HLA class II antigen mAbs. The ability of synthetic peptides to inhibit the binding of anti-HLA class II antigen mAbs to HLA class II antigen can be tested in an inhibition assay with HLA class II antigen-positive cell lines. The synthetic peptides that inhibit or block the binding of anti-HLA class II antigen mAbs to HLA class II antigen can be tested as active immunotherapy candidates. […]

Data set [2] relates to mAb TP25.99, which recognizes HLA class I antigens. Nature of the data set: Inhibition of binding of control mAb TP25.99 (specificity control). Conditions: FIG. 1E. The method, then: This Example illustrates the ability of the peptide mimics to bind to anti-HLA class II mAbs. The synthetic peptides were tested by ELISA for their ability to bind to anti-HLA class II mAb H2-27.F5.2G4, HT214.F2.H6.4F4, LGII612.14 and TP117.6. JH1 and JHT1 were also tested for their ability to inhibit the binding of anti-HLA class II mAb H2-27.F5.2G4 (FIG. 1B), HT214.F2.H6.4F4 (FIG. 1A), LGII612.14 (FIG. 1C) and TP117.6 (FIG. 1D) to HLA class II bearing cells LGL2 cells. H2-27.F5.2G4, LGII-612.14 and HT214.F2.H6.4F4 are monoclonal antibodies (mAb) that recognize HLA class II antigens. TP25.99 is a monoclonal antibody (mAb) which recognizes HLA class I antigens and is used in FIG. 1E as a control. LG2 is a human lymphoid cell line which expresses HLA class II antigens on its cell surface. P763.74 is a High Molecular Weight-Melanoma Associated Antigen (HMW-MAA) peptide mimic isolated using the anti-HMW-MAA mAb 763.74 and is used in FIGS. 1A-1C as a control peptide. The peptides were considered to be mimics of HLA class II antigens if they could inhibit the binding of any of the four anti-HLA class II mAb (H2-27, F5.2G4, HT214.F2.H6.4F4, LGII612.14 and TP117.6) to HLA class II bearing cells.

Data set [3] in a line: Side effects in immunized mice. The data set is classed as in vivo. The settings on record: peptide-KLH, Freund's adjuvant. From the text: (§2) HLA-DR transgenic mice express HLA-DR molecules. The promoter that is used to drive DR expression in the transgenic mice is H2 Ea promoter (pDOI-5 expression vector). This vector directs the expression of cDNA to cells which normally display class II molecules. HLA-DR transgenic mice were utilized as a model to test whether HLA class II peptide mimics can break tolerance to self-antigen. HLA-DR transgenic mice were immunized with peptide JH1 and JHT1 conjugated to keyhole limpet hemocyanin (KLH) and mixed with complete Freund's adjuvant for priming and with incomplete Freund's adjuvant for boosting. […] These experiments utilized LG2 cells as described in Example 2 and MOLT-4 cells. […] It was used as a control. Sera used for testing reactivity with HLA class II antigens was harvested on day 35 from BABL/c mice for FIGS. 2 and 4 and on day 70 from HLA-DR transgenic mice in FIG. 3. For FIGS. 2, 3 and 4, preimmune serum was harvested one week before the first immunization and was used as a control. […] One intradermal injection with HLA class II bearing LG2 cells enhanced the immune response to HLA class II antigens.

A further data set relates to MOLT-4 lymphoid cells. As to the kind of experiment: Flow cytometry of immune sera with control MOLT-4 lymphoid cells. The settings on record: sera of immunized BALB/c mice, day 35; MOLT-4 does not express HLA class II; FIG. 4B. The data set is classed as cell-based, human.
Description: as §2

Data set [4] concerns mAb TP117.6 binding to HLA class II antigens on LG2 cells. Nature of the data set: Inhibition of binding of mAb TP117.6 to HLA class II bearing LG2 cells. Also noted: species or system human. The settings on record: FIG. 1D. The method, then: as §1
Data set [5] has as its system anti-HLA class II mAb HT214.F2.H6.4F4. Nature of the data set: ELISA binding of synthetic peptide to mAb HT214.F2.H6.4F4. Conditions: ELISA and inhibition assay. The method, then: as §1
A general note: ELISA stands for enzyme-linked immunosorbent assay.

In data set [6] the test system is HLA class II antigens of LG2 lymphoid cells. As to the kind of experiment: Flow cytometry of immune sera with LG2 lymphoid cells. The class given is cell-based, human. The settings on record: sera of immunized BALB/c mice, day 35; FIG. 4A.
Description: as §2
(A flow cytometer gives signals particle by particle.)

For data set [7], the system named is HLA class II antigens. As to the kind of experiment: Immunization of BALB/c mice, serum reactivity with HLA class II antigens. The class given is in vivo. The settings on record: peptide conjugated to KLH with Freund's adjuvant, sera day 35, FIG. 2.
Description: as §2

Data set [8] has as its system immunizing peptides; HLA class II. Nature of the data set: Antibody titers in sera of immunized mice. The class given is in vivo. Conditions: peptide-KLH, Freund's adjuvant; FIGS. 2-4.
Description: as §2

The subject of data set [9] is HLA class II antigens. As to the kind of experiment: Immunization of HLA-DR transgenic mice, breaking of self-tolerance. The data set is classed as in vivo. Conditions: peptide conjugated to KLH with Freund's adjuvant, sera day 70, FIG. 3.
Description: as §2

Data set [10] relates to mAb H2-27.F5.2G4 binding to HLA class II antigen on LG2 cells. As to the kind of experiment: Inhibition of binding of mAb H2-27.F5.2G4 to HLA class II bearing LG2 cells. Also noted: species or system human. The settings on record: FIG. 1B; negative control peptide 673.74. The method, then:
as §1

The subject of data set [11] is anti-HLA class II mAb LGII-612.14. As to the kind of experiment: ELISA binding of synthetic peptide to mAb LGII-612.14. Conditions: ELISA and inhibition assay. The method, then:
as §1

Data set [12] deals with anti-HLA class II mAb H2-27.F5.2G4. As to the kind of experiment: ELISA binding of synthetic peptide to mAb H2-27.F5.2G4. The settings on record: ELISA and inhibition assay. The method, then:
as §1

In data set [13] the test system is mAb LGII-612.14 binding to HLA class II antigens on LG2 cells. As to the kind of experiment: Inhibition of binding of mAb LGII-612.14 to HLA class II bearing LG2 cells. Also noted: species or system human. The settings on record: FIG. 1C; negative control peptide 673.74. The method, then: as §1

Entries after “also recorded” stand apart in the source; their conditions may differ.

Turning to “KCPLDPKGLNCV (unknown synthesized peptide JHT1) [HLA class II peptide mimic isolated by panning with mAb HT214.F2.H6.4F4]”, the “inhibition of binding of mAb HT214.F2.H6.4F4 to HLA class II antigens on LG2 cells” value in data set [1] is on record as “inhibits binding of mAb HT214.F2.H6.4F4 to HLA class II antigens to LG2 cells in a dose-dependent manner”. Also, the “inhibition of binding of mAb TP25.99 (anti-HLA class I, control)” value in [2] was “do not inhibit binding”. The “side effects in immunized mice” value in data set [3] is reported as “No obvious side effects”. Also, the “reactivity of immune sera with control MOLT-4 lymphoid cells (flow cytometry)” value with MOLT-4 lymphoid cells is given as “lack of reactivity”. The “inhibition of binding of mAb TP117.6 to HLA class II antigens on LG2 cells” value in [4] is on record as “can inhibit binding”. Besides, the “reaction with the combining site of mAb HT214.F2.H6.4F4” value in data set [5] was “reacted with the combining sites”. For the same sequence, in data set [6], the “reactivity of immune sera with HLA class II antigens of LG2 lymphoid cells (flow cytometry)” value is “reactivity”. The “humoral immune response against HLA class II antigens” value in the data set on HLA class II antigens [7] is on record as “elicits a humoral immune response against HLA class II antigens; also recorded: also induced a humoral response against HLA class II antigens”. For the same sequence, in [8], the “anti-HLA class II antibodies in sera of immunized mice” value is “detected in the sera of immunized mice at lower titers” and the “antibodies to the immunizing peptides in sera of immunized mice” value was “high-titer antibodies to the immunizing peptides were detected”. Also, in the data set on HLA class II antigens [9], the “breaking self-tolerance, humoral immune response against HLA class II antigens” value is “can break self-tolerance and elicit a humoral immune response against HLA class II antigens; also recorded: can also break self-tolerance”.

On to “SCLRAGGWVCCK (unknown synthesized peptide JH1) [HLA class II peptide mimic isolated by panning phage display libraries with mAb H2-27.F5.2G4 and LGII-612.14]”, for which, in data set [10], the “inhibition of binding of mAb H2-27.F5.2G4 to HLA class II antigen on LG2 cells” value is on record as “inhibits binding of mAb H2-27.F5.2G4 to HLA class II antigen on LG2 cells in a dose-dependant manner”. In data set [2], the “inhibition of binding of mAb TP25.99 (anti-HLA class I, control)” value is given as “do not inhibit binding”. In addition, the “reaction with the combining site of mAb LGII-612.14” value in [11] was “reacted with the combining sites”. Also, the “side effects in immunized mice” value in data set [3] was “No obvious side effects”. For the same sequence, the “reactivity of immune sera with control MOLT-4 lymphoid cells (flow cytometry)” value in the data set on MOLT-4 lymphoid cells is “lack of reactivity”. Besides, the “inhibition of binding of mAb TP117.6 to HLA class II antigens on LG2 cells” value in data set [4] is reported as “can inhibit binding”. In addition, the “reactivity of immune sera with HLA class II antigens of LG2 lymphoid cells (flow cytometry)” value in [6] is reported as “reactivity”. In addition, the “humoral immune response against HLA class II antigens” value in the data set with HLA class II antigens [7] is recorded as “elicits a humoral immune response against HLA class II antigens; also recorded: induced a humoral response against HLA class II antigens”. In addition, in data set [12], the “reaction with the combining site of mAb H2-27.F5.2G4” value is “reacted with the combining sites”. Further, in data set [13], the “inhibition of binding of mAb LGII-612.14 to HLA class II antigens on LG2 cells” value is reported as “inhibits binding of mAb LGII-612.14 to HLA class II antigens on LG2 cells in a dose-dependent manner”. Also, in [8], the “anti-HLA class II antibodies in sera of immunized mice” value is “detected in the sera of immunized mice at lower titers” and the “antibodies to the immunizing peptides in sera of immunized mice” value is “high-titer antibodies to the immunizing peptides were detected”. The “breaking self-tolerance, humoral immune response against HLA class II antigens” value in the data set with HLA class II antigens [9] is “can break self-tolerance and elicit a humoral immune response against HLA class II antigens”.
